Consider two molecules from patent US7022709B2, “Selective PDE 2 inhibitors as pharmaceuticals for improving perception” (priority 2000, dated 2006).

In one experiment the target is adenosine deaminase (Homo sapiens, UniProt P00813). The settings on record: read-out: IC50 adenosine deaminase; cited from earlier work.
Experiment [1] addresses T1, PDE2 (Homo sapiens, UniProt O00408). The settings on record: cited from earlier work.
A further experiment deals with T2, PDE4B (Homo sapiens, UniProt Q07343).
T2 construct: made in house; host or cells: Sf9 cells, pFASTBAC baculovirus expression system (Gibco BRL)
Description: PDE inhibition, human recombinant PDE4B, [3H]cAMP SPA. Format: biochemical. Here is the method:
(§1) Human recombinant PDE2 (Rosman et al. Gene 1997 191, 89–95), PDE3B (Miki et al. Genomics 1996 36, 476–485), PDE4B (Bolger et al. Mol. Cell. Biol. 1993 13, 6558–6571) and PDE7B (Hetman et al. Proc. Natl. Acad. Sci. U.S.A. 2000 97, 472–476) are expressed in Sf9 cells with the aid of the pFASTBAC baculovirus expression system (Gibco BRL).
(§2) The activity of the test substances on human recombinant PDE2, PDE3B, PDE4B and PDE7B is determined using the [^3H]cAMP scintillation proximity assay (SPA) kit (TRKQ7090) from Amersham International (Little Chalfont, England) and on PDE1 and PDE5 using the [^3H]cGMP scintillation proximity assay (SPA) kit (TRKQ7100) from Amersham International (Little Chalfont, England).
(§3) Test substances are dissolved in 100% DMSO (10 mM), and this solution is diluted further with H2O (maximum final concentration in the assay: 10 μM). The PDE2 is prestimulated by adding cGMP (final concentration in the assay: 10^−6 M). The enzyme is diluted in PDE buffer (20 mM TRIS/HCl, 5 mM MgCl2, 0.1 mg/ml albumin, pH 7.5). […] After the beads have settled out (about 15 min), the plate is measured in a beta counter.
(§4) Calmodulin 10^−7 M and CaCl2 1 μM are added to the reaction mixture for the PDE1 measurement. PDE5 is measured using the [^3H] cGMP SPA assay. PDE3B, PDE4B and PDE7B are measured using the [^3H] cAMP scintillation proximity assay.

The subject of the next experiment is rats. Description: Object recognition test. Format: in vivo, rat. The settings on record: second run 24 hours later. How it is done: The object recognition test is a memory test. It measures the ability of rats (and mice) to distinguish between familiar and unfamiliar objects.
The test was carried out as described (Blokland et al. NeuroReport 1998, 9, 4205–4208; Ennaceur, A., Delacour, J., Behav. Brain Res. 1988, 31, 47–59; Ennaceur, A., Meliani, K., Psychopharmacology 1992, 109, 321–330; Prickaerts, et al. Eur. J. Pharmacol. 1997, 337, 125–136).
In a first run, a rat is confronted in an otherwise empty observation arena of relatively large size by two identical objects. The rat will investigate, i.e. sniff round and touch, both objects extensively. In a second run, after an interval of 24 hours, the rat is put in the observation arena again. One of the familiar objects has now been replaced by a new, unfamiliar object. If a rat recognizes the familiar object, it will concentrate on investigating the unfamiliar object. However, after 24 hours, a rat has normally forgotten which object it investigated in the first run, and it will therefore inspect both objects to the same extent. Administration of a substance with a learning- and memory-improving effect will lead to a rat recognizing the object seen in the first run 24 hours previously as familiar. It will investigate the new, unfamiliar object in more detail than the familiar one. This memory ability is expressed in a discrimination index. A discrimination index of zero means that the rat investigates both objects, the old and the new, for equal times; that is to say it has not recognized the old object and reacts to both objects as if they were unfamiliar and new.
The effects of Example 1 on object recognition by rats 24 hours after the first run were investigated. The animals received Tylose alone, or Example 1 in dosages of 0.3, 1.0 or 3.0 mg/kg of body weight suspended in Tylose, orally, immediately following the first run with two identical objects. […] After a washout period of 2 or 3 days, a new dosage of Example 1 was tested in the same rats, until the memory capacity of all the rats had been measured twice with all the dosages. […]

In experiment [2] the target is T3, PDE2 (Bos taurus, UniProt P14099).
T3 construct: from tissue; host or cells: bovine myocardium
T3 sequence (P14099 1-921): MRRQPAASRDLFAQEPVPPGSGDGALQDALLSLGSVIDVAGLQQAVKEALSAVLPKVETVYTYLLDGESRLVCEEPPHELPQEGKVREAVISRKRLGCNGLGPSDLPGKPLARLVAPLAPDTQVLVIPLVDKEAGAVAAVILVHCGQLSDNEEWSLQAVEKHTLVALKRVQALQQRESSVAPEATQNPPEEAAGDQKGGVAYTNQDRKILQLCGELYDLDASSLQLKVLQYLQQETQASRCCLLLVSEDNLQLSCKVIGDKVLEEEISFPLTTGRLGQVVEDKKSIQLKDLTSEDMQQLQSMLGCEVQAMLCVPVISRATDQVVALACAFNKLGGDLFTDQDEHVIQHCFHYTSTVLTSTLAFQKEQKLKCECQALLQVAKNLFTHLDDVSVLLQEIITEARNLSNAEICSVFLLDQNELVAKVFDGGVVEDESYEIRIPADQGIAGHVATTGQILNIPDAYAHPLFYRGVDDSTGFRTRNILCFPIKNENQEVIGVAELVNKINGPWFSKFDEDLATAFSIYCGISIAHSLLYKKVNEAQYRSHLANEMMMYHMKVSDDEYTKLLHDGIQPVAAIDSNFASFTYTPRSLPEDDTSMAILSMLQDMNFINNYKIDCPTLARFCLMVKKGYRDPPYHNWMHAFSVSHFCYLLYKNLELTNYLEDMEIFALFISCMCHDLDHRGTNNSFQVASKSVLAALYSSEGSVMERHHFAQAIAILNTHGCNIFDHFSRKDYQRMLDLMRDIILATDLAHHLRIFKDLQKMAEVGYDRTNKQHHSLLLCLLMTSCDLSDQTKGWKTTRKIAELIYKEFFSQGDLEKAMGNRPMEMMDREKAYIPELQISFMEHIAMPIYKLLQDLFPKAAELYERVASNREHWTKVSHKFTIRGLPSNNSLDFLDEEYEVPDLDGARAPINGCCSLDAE
Kind of experiment: PDE inhibition, cGMP-stimulated PDE2 from bovine myocardium. Format: biochemical. The text has this:
(§5) The PDE 2 which can be stimulated by cGMP is isolated from bovine myocardium. The PDE 1 which can be stimulated by Ca^2+ calmodulin is isolated from porcine aorta, porcine brain or, preferably, from bovine aorta. The cGMP-specific PDE 5 is obtained from porcine small intestine, porcine aorta, human blood platelets and, preferably, from bovine aorta. Purification takes place by anion exchange chromatography on MonoQ^R Pharmacia essential by the method of Hoey, M; Houslay, M. D., Biochem. Pharmacol. 1990, 40, 193–202 and Lugman et al. Biochem. Pharmacol. 1986, 35, 1743–1751.
The enzymatic activity is determined in an assay mixture of 100 μl in 20 mM Tris/HCl buffer pH 7.5 which contains 5 mM MgCl2, 0.1 mg/ml bovine serum albumin and 800 Bq of either [^3H]-cAMP or [^3H]-cGMP. The final concentration of the respective nucleotides is 10^−6 mol/l. […] 100 μl of the reaction mixture are separated by HPLC, and the cleavage products are determined quantitatively on line using a flow scintillation counter. The substance concentration at which the reaction rate is reduced by 50% is measured. […]
Test substances are dissolved in 100% DMSO (10 mM), and this solution is diluted further with H2O (maximum final concentration in the assay: 10 μM). […] After the beads have settled out (about 15 min), the plate is measured in a beta counter.

The next experiment deals with PDE1. Description: PDE inhibition, PDE1 (Ca-calmodulin-dependent). Format: biochemical. The settings on record: bovine PDE1.
Text: as §5
(§6) The enzymatic activity is determined in an assay mixture of 100 μl in 20 mM Tris/HCl buffer pH 7.5 which contains 5 mM MgCl2, 0.1 mg/ml bovine serum albumin and 800 Bq of either [^3H]-cAMP or [^3H]-cGMP. […] 100 μl of the reaction mixture are separated by HPLC, and the cleavage products are determined quantitatively on line using a flow scintillation counter. The substance concentration at which the reaction rate is reduced by 50% is measured. […]
(§7) The activity of the test substances on human recombinant PDE2, PDE3B, PDE4B and PDE7B is determined using the [^3H]cAMP scintillation proximity assay (SPA) kit (TRKQ7090) from Amersham International (Little Chalfont, England) and on PDE1 and PDE5 using the [^3H]cGMP scintillation proximity assay (SPA) kit (TRKQ7100) from Amersham International (Little Chalfont, England). […]

In experiment [3] the test system is primary mouse (E18) cortex cultures. Description: Increasing the intracellular neuronal cGMP concentration in cell cultures. Format: cell-based. The settings on record: 100 nM Example 1, parallel incubation with 100 µM SNP, 20 min, 37° C., mouse cortical neurons. How it is done:
PDE 2 inhibitors increase the intracellular neronal cGMP concentration after prestimulation of guanylate cyclase with 10^−4 M sodium nitroprusside (SNP) in primary mouse brain cell cultures.
Mouse embryos were decapitated and the heads were transferred into dissection dishes. The scalp and roof of the skull were removed, and the exposed brains were transferred into another Petri dish. Using a binocular microscope and two forceps, the cerebrum (cortex) was isolated and cooled to 4° C. with ice. This dissection and the isolation of the cortical neurons were then carried out in accordance with a standard protocol with the papain dissociation system (Worthington Biochemical Corporation, Lakewood, N.J. 08701, USA) (Huettner et al. J. Neurosci. 1986, 6, 3044–3060.). […] The cells were then lysed with 200 μl lysis buffer (cGMP kit code RPN 226; from Amersham Pharmacia Biotech.) and cGMP concentration was measured as stated by the manufacturer. […]
Cells were treated with […] SNP (0) or with […] SNP and Example 1 (1×10^−8 M; 5×10^−8 M; 1×10^−7 M; 5×10^−7 M; 1×10^−6 M) for 20 min. The intracellular cGMP level was then measured.

The target of a further experiment is T4, PDE3B (Homo sapiens, UniProt Q13370).
T4 construct: made in house; host or cells: Sf9 cells, pFASTBAC baculovirus expression system (Gibco BRL)
Kind of experiment: PDE inhibition, human recombinant PDE3B, [3H]cAMP SPA. Format: biochemical. How it is done: as §1, §2, §3, §4

Experiment [4] deals with T1, PDE2. Kind of experiment: PDE inhibition, human recombinant PDE2, [3H]cAMP SPA. Format: biochemical. Also on record: made in house; host or cells: Sf9 cells, pFASTBAC baculovirus expression system (Gibco BRL). How it is done:
as §1, §2, §3

A further experiment addresses T5, PDE7B (Homo sapiens, UniProt Q9NP56).
T5 construct: made in house; host or cells: Sf9 cells, pFASTBAC baculovirus expression system (Gibco BRL)
Kind of experiment: PDE inhibition, human recombinant PDE7B, [3H]cAMP SPA. Format: biochemical. How it is done: as §1, §2, §3, §4

The next experiment concerns the target T6, PDE5 (Homo sapiens, UniProt O76074).
T6 construct: from tissue; host or cells: human blood platelets (inferred; b27 also lists porcine small intestine, porcine aorta and, preferably, bovine aorta)
Kind of experiment: PDE inhibition, PDE5, [3H]cGMP SPA. Format: biochemical.
Text: as §5, §6, §7

Read-outs that look alike come from different tables or passages of the source.

T1 sequence (O00408 whole entry): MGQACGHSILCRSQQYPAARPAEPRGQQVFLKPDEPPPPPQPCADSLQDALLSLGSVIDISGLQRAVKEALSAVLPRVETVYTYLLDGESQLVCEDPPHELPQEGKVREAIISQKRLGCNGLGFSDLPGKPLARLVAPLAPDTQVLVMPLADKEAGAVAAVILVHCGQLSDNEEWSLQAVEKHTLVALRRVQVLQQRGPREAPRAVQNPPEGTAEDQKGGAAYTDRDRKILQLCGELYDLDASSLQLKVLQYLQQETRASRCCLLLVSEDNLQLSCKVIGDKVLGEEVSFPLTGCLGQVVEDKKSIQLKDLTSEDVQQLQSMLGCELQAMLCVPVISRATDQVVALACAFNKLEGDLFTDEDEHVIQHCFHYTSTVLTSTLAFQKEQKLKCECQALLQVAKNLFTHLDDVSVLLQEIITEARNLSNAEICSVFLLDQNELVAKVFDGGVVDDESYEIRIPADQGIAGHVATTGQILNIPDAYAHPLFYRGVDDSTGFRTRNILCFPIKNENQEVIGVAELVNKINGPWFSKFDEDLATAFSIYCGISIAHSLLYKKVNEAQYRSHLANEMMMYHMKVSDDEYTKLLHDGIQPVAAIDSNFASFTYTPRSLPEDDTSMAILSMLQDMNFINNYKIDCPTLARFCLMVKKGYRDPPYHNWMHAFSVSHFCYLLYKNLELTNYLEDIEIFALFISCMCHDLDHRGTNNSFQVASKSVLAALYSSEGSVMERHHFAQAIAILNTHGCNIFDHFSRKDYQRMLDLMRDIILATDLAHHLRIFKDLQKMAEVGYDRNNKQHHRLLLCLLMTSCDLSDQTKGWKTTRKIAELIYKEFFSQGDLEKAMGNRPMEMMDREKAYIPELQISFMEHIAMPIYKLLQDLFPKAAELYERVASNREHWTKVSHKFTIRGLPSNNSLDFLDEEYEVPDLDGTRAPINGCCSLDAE
Sequence of adenosine deaminase (P00813 whole entry, species assumed): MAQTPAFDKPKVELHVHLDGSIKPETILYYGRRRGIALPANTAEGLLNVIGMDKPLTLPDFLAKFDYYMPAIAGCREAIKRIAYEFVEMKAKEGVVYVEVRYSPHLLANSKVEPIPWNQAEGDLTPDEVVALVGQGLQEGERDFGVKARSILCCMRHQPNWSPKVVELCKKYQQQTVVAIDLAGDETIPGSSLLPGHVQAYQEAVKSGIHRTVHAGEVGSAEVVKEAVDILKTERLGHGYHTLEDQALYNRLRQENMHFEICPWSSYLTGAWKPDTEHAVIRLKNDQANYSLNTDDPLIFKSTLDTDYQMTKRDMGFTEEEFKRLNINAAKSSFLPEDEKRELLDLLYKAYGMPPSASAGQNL
T4 sequence (Q13370 whole entry): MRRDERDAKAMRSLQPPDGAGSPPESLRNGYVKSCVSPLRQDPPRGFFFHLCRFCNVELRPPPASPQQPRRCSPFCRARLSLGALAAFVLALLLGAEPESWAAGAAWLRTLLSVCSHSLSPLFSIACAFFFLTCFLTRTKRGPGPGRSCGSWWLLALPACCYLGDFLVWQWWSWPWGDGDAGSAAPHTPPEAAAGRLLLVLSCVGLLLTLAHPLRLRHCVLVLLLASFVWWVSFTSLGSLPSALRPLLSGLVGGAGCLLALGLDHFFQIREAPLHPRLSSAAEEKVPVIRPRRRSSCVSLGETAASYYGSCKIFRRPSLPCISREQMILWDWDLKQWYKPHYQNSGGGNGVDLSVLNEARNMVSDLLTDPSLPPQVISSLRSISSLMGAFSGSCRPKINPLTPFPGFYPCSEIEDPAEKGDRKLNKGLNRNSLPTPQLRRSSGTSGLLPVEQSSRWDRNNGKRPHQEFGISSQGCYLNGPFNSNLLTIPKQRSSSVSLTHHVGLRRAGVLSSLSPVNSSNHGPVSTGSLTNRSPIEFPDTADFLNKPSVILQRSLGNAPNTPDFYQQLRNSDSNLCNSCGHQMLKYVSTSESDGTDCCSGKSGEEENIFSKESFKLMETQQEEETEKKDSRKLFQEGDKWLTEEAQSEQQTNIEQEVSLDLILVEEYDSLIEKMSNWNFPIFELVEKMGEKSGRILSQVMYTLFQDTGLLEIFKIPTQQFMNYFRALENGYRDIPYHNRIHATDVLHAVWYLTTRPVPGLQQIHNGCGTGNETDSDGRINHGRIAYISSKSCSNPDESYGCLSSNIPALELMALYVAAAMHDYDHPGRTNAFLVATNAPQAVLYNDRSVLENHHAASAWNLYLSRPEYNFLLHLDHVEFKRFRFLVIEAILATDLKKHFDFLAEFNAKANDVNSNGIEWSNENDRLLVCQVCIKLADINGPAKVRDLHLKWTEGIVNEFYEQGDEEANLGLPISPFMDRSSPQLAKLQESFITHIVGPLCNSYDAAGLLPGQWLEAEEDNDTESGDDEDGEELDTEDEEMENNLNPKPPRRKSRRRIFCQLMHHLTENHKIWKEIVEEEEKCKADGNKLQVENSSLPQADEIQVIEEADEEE
T5 sequence (Q9NP56 whole entry): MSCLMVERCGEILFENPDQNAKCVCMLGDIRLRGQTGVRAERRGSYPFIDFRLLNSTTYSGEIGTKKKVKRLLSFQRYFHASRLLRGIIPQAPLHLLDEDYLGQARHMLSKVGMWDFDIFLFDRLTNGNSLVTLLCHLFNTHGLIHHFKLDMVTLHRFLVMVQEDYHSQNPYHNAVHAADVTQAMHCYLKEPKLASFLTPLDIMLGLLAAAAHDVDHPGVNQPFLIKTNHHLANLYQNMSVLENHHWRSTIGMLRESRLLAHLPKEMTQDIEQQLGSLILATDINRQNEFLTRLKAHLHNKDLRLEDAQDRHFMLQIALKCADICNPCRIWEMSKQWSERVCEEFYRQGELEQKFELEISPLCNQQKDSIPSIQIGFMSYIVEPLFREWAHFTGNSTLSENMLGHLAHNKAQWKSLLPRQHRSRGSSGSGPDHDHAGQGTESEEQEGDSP
T2 sequence (Q07343 whole entry): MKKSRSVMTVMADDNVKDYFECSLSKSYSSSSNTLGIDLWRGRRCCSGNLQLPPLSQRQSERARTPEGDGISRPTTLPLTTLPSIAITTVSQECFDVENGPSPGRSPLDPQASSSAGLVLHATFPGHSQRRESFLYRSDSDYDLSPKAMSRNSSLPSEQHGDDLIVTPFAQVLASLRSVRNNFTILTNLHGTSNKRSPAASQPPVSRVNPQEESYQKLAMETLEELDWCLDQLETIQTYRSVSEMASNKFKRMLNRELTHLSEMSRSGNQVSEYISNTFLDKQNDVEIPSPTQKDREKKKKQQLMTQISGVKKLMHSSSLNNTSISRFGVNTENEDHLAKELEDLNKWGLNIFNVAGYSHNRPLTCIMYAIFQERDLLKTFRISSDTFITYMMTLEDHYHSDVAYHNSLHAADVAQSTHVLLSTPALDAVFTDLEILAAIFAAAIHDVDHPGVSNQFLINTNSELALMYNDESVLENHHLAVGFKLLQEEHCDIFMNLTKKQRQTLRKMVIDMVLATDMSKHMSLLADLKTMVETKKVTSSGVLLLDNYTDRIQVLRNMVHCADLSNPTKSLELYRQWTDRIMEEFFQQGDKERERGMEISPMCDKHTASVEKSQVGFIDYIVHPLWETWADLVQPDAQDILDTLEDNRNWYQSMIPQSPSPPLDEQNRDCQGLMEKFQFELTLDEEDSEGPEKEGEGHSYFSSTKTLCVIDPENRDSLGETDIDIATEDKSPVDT

As for `CCCCCCC(C(C)O)n1cnc2c(N)ncnc21` (stereo not drawn) [EHNA, erythro-9-(2-hydroxy-3-nonyl)adenine], the half-inhibitory concentration (IC50) (as a rule, the point on the concentration scale where inhibition reaches its midpoint) is 0.003 µM at adenosine deaminase and 1 µM at PDE2 [1].
Turning to `COc1ccc(Cc2nc3c(c(C)nn3C(CCCc3ccccc3)C(C)O)c(=O)[nH]2)cc1OC` (stereo not shown) [Example 1, 6-(3,4-dimethoxybenzyl)-1-[1-(1-hydroxyethyl)-4-phenylbutyl]-3-methyl-1,5-dihydropyrazolo[3,4-d]pyrimidin-4-one], the IC50 is 2.9 µM at PDE4B; 0.007 µM against PDE2 [2]; 0.2 µM in the experiment on PDE1; > 4 µM at PDE3B; 0.006 µM on PDE2 [4]; 1.6 µM at PDE7B. This molecule gave an IC50 at PDE5 of 0.3 µM. Besides, the “memory capacity in the second run compared with control (Tylose alone)” value in the experiment with rats (0.3 mg/kg orally immediately after the first run) and in the experiment on rats (1.0 mg/kg orally immediately after the first run) was “improved” throughout. For the same molecule, the “discrimination index (d2)” value in the experiment with rats (0.3 and 1.0 mg/kg orally) is recorded as “greater than zero”. Moreover, the “intracellular cGMP level” value in experiment [3] is “distinct increase”.
